Where “and” joins values, the source holds several entries; their conditions need not be identical. Equal entries are not always repeated. Where two headings read alike, the source gives them in different places.
What was measured:
Format in all cases: cell-based, human
[1] = tested on: DNA synthesis in HL-60 cells; experiment: Inhibition of [3H-methyl]dThd incorporation into DNA of HL-60 cells; details: for inhibition at 30 µg/mL: Homo sapiens, HL-60, at 0.03 mg/mL, read-out: % Inhibition of Precursor Incorporation, DNA; for inhibition of DNA synthesis, in words: HL-60, 0.03 mg/ml
Description: (§1) For the precursor incorporation studies, each compound (in 0.3% dimethylsulfoxide) was preincubated with HL-60 cells (a human promyelocytic leukemic cell line) 2.2×10^6 /ml, for 15 min prior to the addition of the labeled precursor (obtained from ICN Radiochemicals, Irvine, Calif.) and then incubated for 30 min. The precursors used for incorporation into DNA, RNA and protein were [^3 H-methyl]dThd (1 μCi, 0.15 nmole/ml), [5-^3 H]Cyd (5 μCi, 0.23 nmol/ml), and [2,3,4,5-^3 H]L-Leu (0.5 μCi, 0.004 nmol/ml), respectively. Incorporation of radioactivity in the absence of a plant compound and in the presence of dimethylsulfoxide was used as a control.
Human promyelocytic cells (HL-60) were incubated with [^3 H-methyl]dTHDin the presence and absence of a plant alkaloid.

[2] = tested on: RNA synthesis in HL-60 cells; experiment: Inhibition of [5-3H]Cyd incorporation into RNA of HL-60 cells; details: for inhibition at 30 µg/mL: Homo sapiens, HL-60, 0.5 h
Description: as §1, with “control. The control values for incorporation into DNA, RNA and protein were 8,500, 5,600 and 1,700 cpm/10^6 cells, respectively. The incubation conditions and the procedures for isolating DNA, RNA and protein fractions have been previously described (Chou, T. -C., et al., Cancer Res., 43:3074-3079 (1983)) .” for “control.”
(§2) HL-60 cells were incubated with [5-^3 H]Cyd or [2,3,4,5-^3 H]L-Leu in the presence and absence of alkaloids (0.03 mg/ml) in order to find the effects of the alkaloid on the incorporation of labeled precursors into RNA or protein. […] Over 90% of RNA and protein biosynthesis were inhibited by compounds 11, 16, 17, 22, 28, 29and 30 (Table 1). […] In most cases, the amount required to inhibit precursor incorporation into DNA was less than that to inhibit precursor incorporation into RNA or protein (i.e. DNA synthesis is inhibited most potently).

[3] = tested on: protein synthesis in HL-60 cells; experiment: Inhibition of [2,3,4,5-3H]L-Leu incorporation into protein of HL-60 cells; details: for inhibition at 30 µg/mL: Homo sapiens
Description: as §1, with “control. The control values for incorporation into DNA, RNA and protein were 8,500, 5,600 and 1,700 cpm/10^6 cells, respectively. The incubation conditions and the procedures for isolating DNA, RNA and protein fractions have been previously described (Chou, T. -C., et al., Cancer Res., 43:3074-3079 (1983)) .” for “control.”
as §2

[4] = tested on: HL-60 cells; experiment: HL-60 cell growth inhibition, 72 h; details: HL-60, 72 h; for IC50: read-out: Cell Growth Inhibition, IC50
Description: For growth inhibition studies, HL-60 cells (1.5×10^5 /ml) were grown in RPMI 1640 media (GIBCO, Grand Island, N.Y.) at 37° C. in humidified 5% CO2 for 72 h. Viable cells were determined using trypan blue exclusion and counted in a hemocytometer. The fractional inhibition for each compound concentration (0.0025-0.05 mg/ml in 0.1% dimethylsulfoxide) was analyzed with the median-effect plot using a computer program (Chou, T. -C and P. Talalay, Adv. Enzyme Regul., 22:27-55 (1984); Chou, J. and T. -C. thou, Dose-Effect analysis with microcomputers: Quantitation of ED50, LD50, synergism, antagonism, low-dose risk, receptor ligand binding and enzyme kinetics. A computer software disk for Apple II series or IBM-PC and manual. Elsevier Science Publishers, Elsevier-BioSoft, Cambridge, United Kingdom (1986)). The median-effect concentration (IC50) was determined automatically for three to five dose-effect levels. Cell growth in the absence of plant compound and in the presence of dimethylsulfoxide was used as a control. Dimethylsulfoxide alone inhibited cell growth 3.9%±1.5% during the 72 h incubation period. Those data with negative values represent activations.

[5] = at 0.03 mg/mL, read-out: % Inhibition of Precursor Incorporation, RNA
[6] = HL-60, at 0.03 mg/mL, read-out: % Inhibition of Precursor Incorporation, Protein

| IC50 ([4]; Homo sapiens) | Cell Growth Inhibition, IC50 [4] [µg/mL] | IC50 [4] [µM] | SMILES | inhibition at 30 µg/mL [1] [%] | inhibition at 30 µg/mL [2, 5] [%] | inhibition at 30 µg/mL [3, 6] [%] | cell growth inhibition, in words [4] | inhibition of DNA synthesis, in words [1] | % Inhibition of Precursor Incorporation, DNA ([1]; at 0.03 mg/mL) [%] | % Inhibition of Precursor Incorporation, RNA ([2]; at 0.03 mg/mL) [%] | % Inhibition of Precursor Incorporation, Protein ([3]; at 0.03 mg/mL) [%] | inhibition at 30 µg/mL ([2]; read-out: % Inhibition of Precursor Incorporation, RNA, at 0.03 mg/mL) [%] | inhibition at 30 µg/mL ([3]; HL-60, read-out: % Inhibition of Precursor Incorporation, Protein, at 0.03 mg/mL) [%] |
| --- | --- | --- | --- | --- | --- | --- | --- | --- | --- | --- | --- | --- | --- |
| 6 µg/mL and 16.9 µM |  |  | COc1cc(O)c2c(=O)c3ccc(O)c(OC)c3n(C)c2c1CC=C(C)C [Compound 29, Grandisinine] | 98.5 | 96.5 | 94.6 | significant activity against leukemic cells in vitro |  |  |  |  |  |  |
| 1.7 µg/mL and 4.4 µM |  |  | COc1ccc2c(=O)c3c(O)cc(OC)c(CC=C(C)C)c3n(C)c2c1OC [Compound 30, Balyumine-B] | 86.9 | 92.5 | 87 |  |  |  |  |  |  |  |
| 9.1 µg/mL and 31 µM |  |  | CC1(C)C=Cc2c(cc(O)c3c(=O)c4ccccc4[nH]c23)O1 [Compound 32, des-N-methyl-nor-acronycine] | 69.2 | 77.5 | 85.9 | only showed moderate cell growth inhibitory activity | did not show good activity |  |  |  |  |  |
| 5.4 µg/mL and 17.6 µM |  |  | COc1cc2c(c3[nH]c4ccccc4c(=O)c13)C=CC(C)(C)O2 [Compound 33, des-N-methyl acronycine] | 93.8 | 67.3 | 86.4 | significantly active | markedly increased |  |  |  |  |  |
| > 40 µg/mL and > 130 µM |  |  | Cn1c2ccccc2c(=O)c2c(O)cc3c(c21)C=CC(C)(C)O3 [Compound 35, Noracronycine] | 25.5 | 94 | 4.7 | only showed moderate cell growth inhibitory activity |  |  |  |  |  |  |
| 5.5 µg/mL and 16.9 µM |  |  | Cn1c2c(O)cccc2c(=O)c2c(O)cc3c(c21)CCC(C)(C)O3 [Compound 38, 1,2-Dihydro-11-hydroxy-nor acronycine] | 98.8 | 76.6 | 92.2 | only half as potent as their parent compounds | same potency as their parent compounds |  |  |  |  |  |
|  | 5.8 | 17.2 | COc1cccc2c(=O)c3c(O)cc4c(c3n(C)c12)C=CC(C)(C)O4 [Compound 39, 11-methoxy-noracronycine] |  |  |  |  |  | 98.9 | 39.9 | 36.2 |  |  |
| > 40 µg/mL and > 107 µM |  |  | CC(C)=CCc1c2c(c3c(c1O)c(=O)c1ccccc1n3C)C=CC(C)(C)O2 [Compound 41, N-Methylseverifoline] | 21.3 | -17.9 | 13.2 | only showed moderate cell growth inhibitory activity | no effect on the inhibitory activity |  |  |  |  |  |
| 2.9 µg/mL and 8.2 µM |  |  | COc1c(O)ccc2c(=O)c3c(O)cc4c(c3n(C)c12)C=CC(C)(C)O4 [Compound 42, Citracridone-I] | 98.5 | 96.9 | 90.5 |  |  |  |  |  |  |  |
| 6.4 µg/mL and 18 µM |  |  | COc1c(O)ccc2c(=O)c3c(O)cc4c(c3n(C)c12)CCC(C)(C)O4 [Compound 43, 1,2-dihydrocitracridone-I] | 94.9 | 68 | 81.9 | only half as potent as their parent compounds | same potency as their parent compounds |  |  |  |  |  |

| SMILES | IC50 ([4]; Homo sapiens) | Cell Growth Inhibition, IC50 [4] [µg/mL] | IC50 [4] [µM] | inhibition at 30 µg/mL [1] [%] | inhibition at 30 µg/mL [2, 5] [%] | inhibition at 30 µg/mL [3, 6] [%] | cell growth inhibition, in words [4] | inhibition of DNA synthesis, in words [1] | % Inhibition of Precursor Incorporation, DNA ([1]; at 0.03 mg/mL) [%] | % Inhibition of Precursor Incorporation, RNA ([2]; at 0.03 mg/mL) [%] | % Inhibition of Precursor Incorporation, Protein ([3]; at 0.03 mg/mL) [%] | inhibition at 30 µg/mL ([2]; read-out: % Inhibition of Precursor Incorporation, RNA, at 0.03 mg/mL) [%] | inhibition at 30 µg/mL ([3]; HL-60, read-out: % Inhibition of Precursor Incorporation, Protein, at 0.03 mg/mL) [%] |
| --- | --- | --- | --- | --- | --- | --- | --- | --- | --- | --- | --- | --- | --- |
| CC(C)=CCc1c2c(c3[nH]c4c(O)cccc4c(=O)c3c1O)C=CC(C)(C)O2 [Compound 40, Atalaphyllinine] | 1.2 µg/mL and 3.2 µM |  |  | 98.8 |  |  | comparable activity | greater activity |  |  |  | 24.4 | 41.8 |

Source: patent publication US5340818A, “Methods and compositions for inhibiting tumor cell growth” (priority 1993, dated 1994)
